Patent US20240207327A1, “COMPOSITION INCLUDING PROPOLIS AND SORBUS COMMIXTA AS ACTIVE INGREDIENTS FOR ALLEVIATING AND TREATING INFLAMMATORY DISEASES AND ALLERGIC DISEASES” (Andong National University Industry-Academic Cooperation …, priority 2022, published 2024)

How the values were obtained:
RAW 264.7 cell line [1] = assay: Nitric oxide (NO) production assay in LPS-treated RAW 264.7 (Griess reagent); format: cell-based, mouse; details: for NO production rate compared with control / NO production, combined treatment / NO production compared to the control: LPS 100 ng/mL; for NO production rate compared with control / NO production compared to the control: independent treatment; for NO production rate compared with control: 10 μg/mL; for inhibitory effect on NO production (in words): LPS-induced RAW 264.7, independent treatment
Method: (§1) RAW 264.7 cell line, a mouse macrophage cell line was purchased from KCLB (Korean Cell Line Bank, Korea). After RAW 264.7 was added with 10% fetal bovine serum (FBS, GIBCO, USA) and 1% antibiotics-antimycotic (GIBCO, USA), the cell was subcultured in Dulbecco's modified Eagle's medium (DMEM, WELGENE, Korea) in a 37° C., 5% CO2 incubator (Thermo Fisher Inc., USA).
After RAW 264.7 cell line was independently treated with any one of the flavonoid componentsor Sorbus commixta extract, and was combinedly treated with any one of the flavonoid components and the Sorbus commixta extract, an evaluation of Nitric Oxide production (NO assay) was conducted to identify effects on NO secretion induced by LPS.
At this time, RAW 264.7 cells were seeded at 1×10^5 cells/well in 96-well plates and cultured in a 37° C., 5% CO2 incubator for 24 hours. Each cell was pretreated with samples by concentration (pinocembrin, quercetin, kaempferol, glangin, and chrysin at concentrations of 1, 2.5, 5, and 10 μg/mL, caffeic acid and p-Coumaric acid at concentrations of 2.5, 5, 10, and 25 μg/mL, and Sorbus commixta ethanol extract at concentrations of 25, 50, 100, and 250 ppm), respectively, and then the cells were treated with LPS (Sigma-Aldrich Inc, USA) to a final concentration of 100 ng/mL to induce the inflammatory response for 20 hours. After the induction of the inflammatory response, a 100 μL supernatant of a 96-well plate was added with a 100 μL Griess reagent (Sigma-Aldrich Inc., USA) at a concentration of 40 mg/mL (in water), and reacted in the dark for 15 minutes, and the optical density was measured at 540 nm using a Tecan infinite 200 microplate reader (Tecan Trading AG, Switzerland). A quantitative line was drawn using Sodium nitrite (Sigma-Aldrich Inc., USA), and each value of optical density was substituted to the quantitative line to determine the amount of produced Nitric Oxide (NO).
In the inflammatory response of macrophages induced by LPS treatment, the treatment effects of any one of the flavonoid components or Sorbus commixta ethanol extract on NO production were determined.

[2] = test system: RBL-2H3 basophilic cell line; assay: beta-Hexosaminidase release assay (degranulation by anti-DNP-IgE / DNP-BSA); format: cell-based, Rat; details: for degree of degranulation of RBL-2H3 cells (in words) / beta-Hexosaminidase released compared to the positive control: independent treatment; for beta-Hexosaminidase released compared to the positive control: 1 hour pretreatment
Method: Effects of quercetin, kaempferol, chrysin, and Sorbus commixta ethanolic extract on allergic response were determined by measuring the release of beta-Hexosaminidase through degranulation caused by the antibody-antigen binding in the RBL-2H3 basophilic cells. The RBL-2H3 basophilic cell line of Rat was purchased from ATCC (American Type Culture Collection, USA), and then it was added with a 10% fetal bovine serum and a 1% antibiotics-antimycotic in Dulbecco's modified Eagle's medium, and was subcultured in a 37° C., 5% CO2 incubator. A beta-Hexosaminidase release assay was carried out to figure out effects of independent treatment of any one of the flavonoid components or the Sorbus commixta ethanolic extract, and combined treatment of any one of the flavonoid components (quercetin, kaempferol, chrysin) with Sorbus commixta ethanolic extract on the release of beta-Hexosaminidase through the degranulation of RBL-2H3 basophilic cell line. The RBL-2H3 cells were seeded at 8×10^4 cells/well in the 96 well plates, and stabilized in a 37° C., 5% CO2 incubator for 3 hours, then treated with anti-DNP-IgE (Sigma-Aldrich Inc., USA) to a final concentration of 250 ng/mL for cell sensitization, and incubated for 24 hours. After culturing, the supernatant liquid was removed and washed twice with Siraganian buffer (NaCl 119 mM, KCl 5 mM, Glucose 5.6 mM, PIPES 25 mM, MgCl2, 0.4 mM, CaCl2 1 mM, BSA 0.1%, pH 7.2, Biosolution, Korea), and concentration-specific samples dissolved in Siraganian buffer were pretreated into the cells for 1 hour. After the pretreatment, the final concentration of DNP-BSA (Sigma-Aldrich Inc., USA) was treated to be at 150 ng/mL, and cultured for 1 hour to induce degranulation. After degranulation induction, 80 μL of supernatant and 20 μL of 10 mM 4-Nitrophenyl N-acetyl-β-D-glucosaminide (in 0.1 M citrate buffer, pH 4.5, Sigma-Aldrich Inc., USA) were reacted in the 96 well plate for 4 hours at a 37° C. incubator. After 4 hours, the reaction was terminated by adding 100 μL of 0.5 M sodium carbonate, and the optical density was measured at 405 nm using a Tecan infinite 200 microplate reader. First, RBL-2H3 cells' degranulation induced by antibody-antigen binding was determined when independently treated with any one of the flavonoid components or Sorbus commixta ethanolic extract. RBL-2H3 cells were sensitized with antibodies for one day, pretreated with different concentration levels of 3 selected flavonoid components, or Sorbus commixta ethanol extract for one hour, followed by additionally being treated with antigens. A group treated with neither the extract nor the antigen was a negative control, and a group independently treated with ethanol as the solvent for the sample and induced for degranulation only was a positive control. When RBL-2H3 cell degranulation is induced by antibody-antigen binding, beta-Hexosaminidase, an indicator of early response is released. On top of that, a substrate addition (P-NAG) leads to the degradation of the substrate and the suspension of the degradation reaction, resulting in a color change. In that case, the amount of beta-hexosaminidase may be determined by measuring the optical density, which may it possible to compare the degree of induced inhibition or induced activation of degranulation. The changes in the amount of beta-Hexosaminidase released by the combined treatment of the Sorbus commixta ethanolic extract with any one of the three selected active ingredients of the flavonoid components were intended to be determined. A group treated with neither the extract nor the antigen was a negative control, and a group independently treated with ethanol as the solvent for the sample and induced for degranulation only was a positive control.

RAW 264.7 cell line [3] = assay: MTT cell viability assay, RAW 264.7; format: cell-based; details: mouse, 24 h, 10 μg/mL
Method: as §1
A cell viability rate was analyzed by carrying out an MTT assay in order to determine the toxicity of the flavonoid components and Sorbus commixta ethanolic extract on the cell line treatment. The RAW 264.7 cell line was seeded 5×10^4 cells/well in a 96 well plate, and cultured in a 37° C., 5% CO2 incubator. After the culture, the flavonoid components and Sorbus commixta ethanolic extract were treated and additionally treated for the next 24 hours. After the additional culture, a 0.1 mg/mL MTT solution (Sigma-Aldrich Inc., USA) was dispensed in each well, the cells were cultured for 4 hours before the supernatant was removed. The resulting formazan was dissolved by seeding 100 μL of DMSO (Sigma-Aldrich Inc., USA) into each well, followed by orbital shaking (87.9 rpm) for 15 minutes, and optical density was measured at 540 nm using a Tecan infinite 200 microplate reader. The measured values of optical density were described as a percentage by substituting into the equation below. […]

[4] = flavonoid 1 μg/mL (first of series) combined with Sorbus commixta ethanol extract
[5] = flavonoid 2.5 μg/mL (second of series) combined with Sorbus commixta ethanol extract
[6] = flavonoid 5 μg/mL (third of series) combined with Sorbus commixta ethanol extract
[7] = flavonoid 10 μg/mL (fourth of series) combined with Sorbus commixta ethanol extract
[8] = 1 μg/mL (first of series 1, 2.5, 5, 10 μg/mL)

## p-coumaric acid (4-Hydroxycinnamic acid)
RAW 264.7 cell line [1]
  NO production rate compared with control: 90%

## O=c1c(O)c(-c2ccc(O)cc2)oc2cc(O)cc(O)c12 [kaempferol]
RAW 264.7 cell line [1]; [4]
  NO production, combined treatment: 75%
RAW 264.7 cell line [1]; [5]
  NO production, combined treatment: 71%
RAW 264.7 cell line [1]; [6]
  NO production, combined treatment: 60%
RAW 264.7 cell line [1]; [7]
  NO production, combined treatment: 39%
RAW 264.7 cell line [1]; [8]
  NO production compared to the control: 92%
RAW 264.7 cell line [1]; 2.5 μg/mL (second of series)
  NO production compared to the control: 85%
RAW 264.7 cell line [1]; 5 μg/mL (third of series)
  NO production compared to the control: 66%
RAW 264.7 cell line [1]
  NO production rate compared with control: 42%
  inhibitory effect on NO production (in words): highest inhibitory effect on NO production
[2]; 2.5 μg/mL mixed with 25 ppm of Sorbus commixta ethanol extract
  production rate of beta-Hexosaminidase compared to the control group: 79.8%
[2]
  degree of degranulation of RBL-2H3 cells (in words): decreased the degree of degranulation
[2]; 0.5 μg/mL
  beta-Hexosaminidase released compared to the positive control: 85%

## O=c1c(O)c(-c2ccccc2)oc2cc(O)cc(O)c12 [galangin]
RAW 264.7 cell line [1]
  NO production rate compared with control: 82%
RAW 264.7 cell line [3]
  cell viability rate: greater than 80%

## O=c1cc(-c2ccccc2)oc2cc(O)cc(O)c12 [chrysin]
RAW 264.7 cell line [1]; [4]
  NO production, combined treatment: 72%
RAW 264.7 cell line [1]; [5]
  NO production, combined treatment: 55%
RAW 264.7 cell line [1]; [6]
  NO production, combined treatment: 38%
RAW 264.7 cell line [1]; [7]
  NO production, combined treatment: 9%
RAW 264.7 cell line [1]; [8]
  NO production compared to the control: 89%
RAW 264.7 cell line [1]; 2.5 μg/mL (second of series)
  NO production compared to the control: 74%
RAW 264.7 cell line [1]; 5 μg/mL (third of series)
  NO production compared to the control: 43%
RAW 264.7 cell line [1]
  NO production rate compared with control: 10%
[2]; 1 μg/mL mixed with 25 ppm of Sorbus commixta ethanol extract
  production rate of beta-Hexosaminidase compared to the control group: 95.9%
[2]; 1 μg/mL
  beta-Hexosaminidase released compared to the positive control: 83%

## O=C1C[C@@H](c2ccccc2)Oc2cc(O)cc(O)c21 [pinocembrin]
RAW 264.7 cell line [1]
  NO production rate compared with control: 90%
RAW 264.7 cell line [3]
  cell viability rate: greater than 80%

## O=C(O)/C=C/c1ccc(O)c(O)c1 [caffeic acid]
RAW 264.7 cell line [1]
  NO production rate compared with control: 97%

## O=c1c(O)c(-c2ccc(O)c(O)c2)oc2cc(O)cc(O)c12 [quercetin]
RAW 264.7 cell line [1]; [4]
  NO production, combined treatment: 78%
RAW 264.7 cell line [1]; [5]
  NO production, combined treatment: 70%
RAW 264.7 cell line [1]; [6]
  NO production, combined treatment: 55%
RAW 264.7 cell line [1]; [7]
  NO production, combined treatment: 39%
RAW 264.7 cell line [1]; [8]
  NO production compared to the control: 97%
RAW 264.7 cell line [1]; 2.5 μg/mL (second of series)
  NO production compared to the control: 81%
RAW 264.7 cell line [1]; 5 μg/mL (third of series)
  NO production compared to the control: 63%
RAW 264.7 cell line [1]
  NO production rate compared with control: 41%
  inhibitory effect on NO production (in words): highest inhibitory effect on NO production
[2]; 0.5 μg/mL mixed with 25 ppm of Sorbus commixta ethanol extract
  production rate of beta-Hexosaminidase compared to the control group: 86.8%
[2]
  degree of degranulation of RBL-2H3 cells (in words): decreased the degree of degranulation
[2]; 0.5 μg/mL
  beta-Hexosaminidase released compared to the positive control: 64%
